Data from patent US8143374B2, “Polypeptide derivatives of parathyroid hormone (PTH)” (The General Hospital Corporation, priority 2006, dated 2012).
Where a SMILES comes first, the peptide text is derived from it. [ ]: non-standard residue; d: D form. Cha = N[C@@H](CC1CCCCC1)C(=O)O

Experiments:
PTHR-delNt = biological target: T1, PTHR-delNt (Homo sapiens, UniProt Q03431, DEL24-181); assay: Competition binding in COS-7 cell membranes with 125I-[Aib1,3,M]PTH(1-15)NH2 tracer; details: for IC50: [Ala1,Arg19]hPTH(1-31)NH2 analogs, COS-7 membranes cotransfected with negative-dominant Gαs, read-out: PTHR-delNT (COS-7) IC50; for reduction (alteration) of binding affinity for PTHR-delNt relative to parent peptide: versus the respective parent peptide
T1 construct: expressed in transfected cells; host or cells: COS-7 cells, transient co-transfection; membranes prepared
T1 sequence (Q03431 with tags, fused parts or gaps DEL24-181): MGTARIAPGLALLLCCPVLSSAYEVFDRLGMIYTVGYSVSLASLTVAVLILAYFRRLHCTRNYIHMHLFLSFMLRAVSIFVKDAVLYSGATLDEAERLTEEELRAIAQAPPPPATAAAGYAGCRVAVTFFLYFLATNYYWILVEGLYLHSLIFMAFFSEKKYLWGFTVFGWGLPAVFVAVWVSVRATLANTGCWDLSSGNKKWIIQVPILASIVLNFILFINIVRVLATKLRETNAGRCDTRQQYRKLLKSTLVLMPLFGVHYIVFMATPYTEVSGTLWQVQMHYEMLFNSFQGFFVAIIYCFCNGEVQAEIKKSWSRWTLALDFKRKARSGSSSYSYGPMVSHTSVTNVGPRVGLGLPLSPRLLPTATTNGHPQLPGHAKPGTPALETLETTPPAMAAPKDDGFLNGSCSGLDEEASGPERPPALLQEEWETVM
Experimental: PTHR-delNt is a derivative of the human PTHR that is deleted for most (Ala^24-Arg^181) of the amino-terminal extracellular domain (Shimizu, M., et al. (2001) Endocrinology 142:3068-3074). This PTHR construct was expressed in COS-7 cells via transient DNA transfection. For cAMP assays, the cells were transfected in 24-well plates using 0.2 μg of plasmid DNA and 0.6 μl of Fugene-6 reagent (Roche Diagnostics, Indianapolis Ind.) per well, and assays were performed on the intact cells three to four days after transfection. For binding assays, cell membranes were prepared from transfected COS-7 cells. To increase the maximal binding of ^125I-[Aib^1,3,M]PTH(1-15)NH2 to PTHR-delNt in these membranes, the cells were cotransfected with a negative dominant mutant Gαs protein (Gαs^ND). This mutant Gαs subunit is thought to couple to cognate receptors, and thus stabilize high affinity receptor conformations, more efficiently than does wild-type Gαs, without increasing basal cAMP levels (Berlot, C. H. (2002) J Biol Chem 277:21080-5). A precursor of this mutant Gαs, Gαs(α3β5), was recently used to increase binding of ^125I-[Aib^1,3,M]PTH(1-15)NH2 to PTHR-delNt in COS-7 cell membranes (Dean, T., (2006) Mol Endocrinol 20:931-942). Gαs^ND, which contains the same five amino acid replacement of corresponding Gαi residues in the α3β5 loop as Gαs(α3β5), plus the point mutations of Gly^226 to Ala, which increases affinity for Gβ/γ, and Ala^366 to Ser, which decreases affinity for GDP, yields approximately two-fold higher levels of specific binding of ^125I-[Aib^1,3,M]PTH(1-15)NH2 than does Gαs(α3β5) (data not shown). For the current membrane preparations, COS-7 cells were co-transfected in six-well plates using 1 μg of each plasmid DNA encoding PTHR-delNt and Gαs^ND, and 6 μl of Fugene-6 reagent (Roche Diagnostics, Indianapolis Ind.) per well. Cells were harvested three days after transfection, and membranes were prepared as described (Dean, T., et al. (2006) Mol Endocrinol 20:931-942).
Receptor binding—Binding to the wild-type human PTHR in intact HKRK-B7 cells and ROS 17/2.8 cells was assessed using ^125I-PTH(1-34) as a tracer radioligand, as described (Shimizu, M., (2001) Endocrinology 142:3068-3074). In brief, the cells in 24-well plates (about 500,000 cells per well) were incubated in binding buffer containing radioligand (about 100,000 cpm per well) with or without unlabeled peptide ligand (3×10^−9 to 1×10^−5 M) for four hours at 15° C. The binding mixture was then removed by aspiration, the cells were rinsed three times with binding buffer, lysed in 1 M NaOH, and the entire lysate was counted for gamma-irradiation in a gamma counter. Binding to PTHR-delNt in COS-7 cell membranes was assessed in 96-well, vacuum filtration plates (Multiscreen-Durapore HV, […] membranes, Millipore Corp., Millford, Mass.) using ^125I-[Aib^1,3,M]PTH(1-15)NH2 as a tracer radioligand, as described (Dean, T., (2006) Mol Endocrinol 20:931-942). In brief, cell membranes (20 μg/well) were incubated in membrane binding buffer containing radioligand (30,000 cpm/well) with or without unlabeled peptide ligand (3×10^−9 to 1×10^−5 M) for 90 minutes at 21° C. The plates were then subject to rapid vacuum filtration, the filters were washed once with buffer, detached from the plate and counted for gamma-irradiation in a gamma counter. Non-specific binding was defined as the binding observed in the presence of 1×10^−6 M PTH(1-31)NH2 for HKRK-B7 and ROS 17/2.8 cells, and 1×10^−6 M [Aib^1,3,M]PTH(1-15)NH2 for PTHR-delNt. Specifically bound radioactivity was calculated as a percentage of the radioactivity specifically bound in the absence of competing ligand. […]

[1] = Circular dichroism spectroscopy, helical residues per peptide chain; assay type: physicochemical; details: [Ala1,Arg19]hPTH(1-31)NH2 analogs; calculated from [θ]222
Experimental: Circular Dichroism—CD spectra were obtained on a JASCO J-600 spectropolarimeter at 20° C. Four spectra were averaged and the data smoothed by the JASCO software. The instrument was calibrated with ammonium (+)-10-camphorsulfonate. Peptide concentrations were verified from the absorption at 280 nm, using an extinction coefficient of 5700 M^−1 for the single tryptophan. Data are expressed as the number of helical residues per peptide chain, as calculated from −[θ]222×30/28,000, where [θ]222 is the mean residue elipticity ([θ]) at 222 nm, as was described previously (Barbier, J. R., et al. (2005) J Biol Chem. 280:23771-23777).

| Structure (SMILES) | IC50 (PTHR-delNt) | CD helical residues [1] | reduction (alteration) of binding affinity for PTHR-delNt relative to parent peptide (PTHR-delNt; COS-7 membranes) | effect on binding to PTHR-delNt (in words) (PTHR-delNt; COS-7 membranes) |
| --- | --- | --- | --- | --- |
| CC[C@H](C)[C@H](NC(=O)[C@H](CCC(=O)O)NC(=O)[C@H](CO)NC(=O)[C@@H](NC(=O)[C@H](C)N)C(C)C)C(=O)N[C@@H](CCC(N)=O)C(=O)N[C@@H](CC(C)C)C(=O)N[C@@H](CCSC)C(=O)N[C@@H](Cc1c[nH]cn1)C(=O)N[C@@H](CC(N)=O)C(=O)N[C@@H](CC(C)C)C(=O)NCC(=O)N[C@@H](CCCCN)C(=O)N[C@@H](Cc1c[nH]cn1)C(=O)N[C@@H](CC(C)C)C(=O)N[C@@H](CC(N)=O)C(=O)N[C@@H](CO)C(=O)N[C@@H](CCSC)C(=O)N[C@@H](CCCNC(=N)N)C(=O)N[C@@H](CCCNC(=N)N)C(=O)N[C@H](C(=O)N[C@@H](CCC(=O)O)C(=O)N[C@@H](Cc1c[nH]c2ccccc12)C(=O)N[C@@H](CC1CCCCC1)C(=O)N[C@@H](CCCNC(=N)N)C(=O)N[C@@H](CCCCN)C(=O)N[C@@H](CCCCN)C(=O)N[C@@H](CC(C)C)C(=O)N[C@@H](CCC(N)=O)C(=O)N[C@@H](CC(=O)O)C(=O)N[C@H](C(N)=O)C(C)C)C(C)C [Leu^24→Cha] (H-AVSEIQLMHNLGKHLNSMRRVEW[Cha]RKKLQDV-NH2; N-terminus assumed) | 283 ± 68 nM | 9 | three-fold or less | little or no effect on binding to PTHR-delNt |
| CC[C@H](C)[C@H](NC(=O)[C@H](CCC(=O)O)NC(=O)[C@H](CO)NC(=O)[C@@H](NC(=O)[C@H](C)N)C(C)C)C(=O)N[C@@H](CCC(N)=O)C(=O)N[C@@H](CC(C)C)C(=O)N[C@@H](CCSC)C(=O)N[C@@H](Cc1c[nH]cn1)C(=O)N[C@@H](CC(N)=O)C(=O)N[C@@H](CC(C)C)C(=O)NCC(=O)N[C@@H](CCCCN)C(=O)N[C@@H](Cc1c[nH]cn1)C(=O)N[C@@H](CC(C)C)C(=O)N[C@@H](CC(N)=O)C(=O)N[C@@H](CO)C(=O)N[C@@H](CCSC)C(=O)N[C@@H](CCCNC(=N)N)C(=O)N[C@@H](CCCNC(=N)N)C(=O)N[C@H](C(=O)N[C@@H](CCC(=O)O)C(=O)N[C@@H](Cc1c[nH]c2ccccc12)C(=O)N[C@@H](CC(C)C)C(=O)N[C@@H](CCCNC(=N)N)C(=O)N[C@@H](CCCCN)C(=O)N[C@@H](CCCCN)C(=O)N[C@@H](CC1CCCCC1)C(=O)N[C@@H](CCC(N)=O)C(=O)N[C@@H](CC(=O)O)C(=O)N[C@H](C(N)=O)C(C)C)C(C)C [Leu^28→Cha] (H-AVSEIQLMHNLGKHLNSMRRVEWLRKK[Cha]QDV-NH2; N-terminus assumed) | 226 ± 39 nM | 8 |  |  |

The next lines start with results.

| IC50 (PTHR-delNt) | CD helical residues [1] | reduction (alteration) of binding affinity for PTHR-delNt relative to parent peptide (PTHR-delNt; COS-7 membranes) | Structure (SMILES) | effect on binding to PTHR-delNt (in words) (PTHR-delNt; COS-7 membranes) |
| --- | --- | --- | --- | --- |
| 126 ± 45 nM | 8 |  | CC[C@H](C)[C@H](NC(=O)[C@H](CCC(=O)O)NC(=O)[C@H](CO)NC(=O)[C@@H](NC(=O)[C@H](C)N)C(C)C)C(=O)N[C@@H](CCC(N)=O)C(=O)N[C@@H](CC(C)C)C(=O)N[C@@H](CCSC)C(=O)N[C@@H](Cc1c[nH]cn1)C(=O)N[C@@H](CC(N)=O)C(=O)N[C@@H](CC(C)C)C(=O)NCC(=O)N[C@@H](CCCCN)C(=O)N[C@@H](Cc1c[nH]cn1)C(=O)N[C@@H](CC(C)C)C(=O)N[C@@H](CC(N)=O)C(=O)N[C@@H](CO)C(=O)N[C@@H](CCSC)C(=O)N[C@@H](CCCNC(=N)N)C(=O)N[C@@H](CCCNC(=N)N)C(=O)N[C@H](C(=O)N[C@@H](CC1CCCCC1)C(=O)N[C@@H](Cc1c[nH]c2ccccc12)C(=O)N[C@@H](CC(C)C)C(=O)N[C@@H](CCCNC(=N)N)C(=O)N[C@@H](CCCCN)C(=O)N[C@@H](CCCCN)C(=O)N[C@@H](CC(C)C)C(=O)N[C@@H](CCC(N)=O)C(=O)N[C@@H](CC(=O)O)C(=O)N[C@H](C(N)=O)C(C)C)C(C)C [Glu^22→Cha] (H-AVSEIQLMHNLGKHLNSMRRV[Cha]WLRKKLQDV-NH2; N-terminus assumed) |  |
| 1870 ± 281 nM | 6 | approximately five- to seven-fold | CC[C@H](C)[C@H](NC(=O)[C@H](CCC(=O)O)NC(=O)[C@H](CO)NC(=O)[C@@H](NC(=O)[C@H](C)N)C(C)C)C(=O)N[C@@H](CCC(N)=O)C(=O)N[C@@H](CC(C)C)C(=O)N[C@@H](CCSC)C(=O)N[C@@H](Cc1c[nH]cn1)C(=O)N[C@@H](CC(N)=O)C(=O)N[C@@H](CC(C)C)C(=O)NCC(=O)N[C@@H](CCCCN)C(=O)N[C@@H](Cc1c[nH]cn1)C(=O)N[C@@H](CC(C)C)C(=O)N[C@@H](CC(N)=O)C(=O)N[C@@H](CO)C(=O)N[C@@H](CCSC)C(=O)N[C@@H](CCCNC(=N)N)C(=O)N[C@@H](CCCNC(=N)N)C(=O)N[C@H](C(=O)N[C@@H](CCC(=O)O)C(=O)N[C@@H](Cc1c[nH]c2ccccc12)C(=O)N[C@@H](CC(C)C)C(=O)N[C@@H](CCCNC(=N)N)C(=O)N[C@@H](CC1CCCCC1)C(=O)N[C@@H](CCCCN)C(=O)N[C@@H](CC(C)C)C(=O)N[C@@H](CCC(N)=O)C(=O)N[C@@H](CC(=O)O)C(=O)N[C@H](C(N)=O)C(C)C)C(C)C [Lys^26→Cha] (H-AVSEIQLMHNLGKHLNSMRRVEWLR[Cha]KLQDV-NH2; N-terminus assumed) |  |
| 629 ± 72 nM | 18 |  | CC[C@H](C)[C@H](NC(=O)[C@H](CCC(=O)O)NC(=O)[C@H](CO)NC(=O)[C@@H](NC(=O)[C@H](C)N)C(C)C)C(=O)N[C@@H](CCC(N)=O)C(=O)N[C@@H](CC(C)C)C(=O)N[C@@H](CCSC)C(=O)N[C@@H](Cc1c[nH]cn1)C(=O)N[C@@H](CC(N)=O)C(=O)N[C@@H](CC(C)C)C(=O)NCC(=O)N[C@@H](CCCCN)C(=O)N[C@@H](Cc1c[nH]cn1)C(=O)N[C@@H](CC(C)C)C(=O)N[C@@H](CC(N)=O)C(=O)N[C@@H](CO)C(=O)N[C@@H](CCSC)C(=O)N[C@@H](CCCNC(=N)N)C(=O)N[C@@H](CCCNC(=N)N)C(=O)N[C@H](C(=O)N[C@@H](CCC(=O)O)C(=O)N[C@@H](Cc1c[nH]c2ccccc12)C(=O)N[C@@H](CC(C)C)C(=O)N[C@@H](CCCNC(=N)N)C(=O)N[C@@H](CCCCN)C(=O)N[C@@H](CC1CCCCC1)C(=O)N[C@@H](CC(C)C)C(=O)N[C@@H](CCC(N)=O)C(=O)N[C@@H](CC(=O)O)C(=O)N[C@H](C(N)=O)C(C)C)C(C)C [Lys^27→Cha] (H-AVSEIQLMHNLGKHLNSMRRVEWLRK[Cha]LQDV-NH2; N-terminus assumed) |  |
